Tests used:
Assay in all cases: biochemical
Parameters in all cases: species or system HEK293/K-562/placenta mixed human extract; Kinobeads chemoproteomic competition binding, quantified by TMT LC-MS/MS, dose response up to 20 uM
AZI2 = AZI2 (Homo sapiens, UniProt Q9H6S1)
BRSK2 = BRSK2 (Homo sapiens, UniProt Q8IWQ3)
JAK3 = JAK3 (Homo sapiens, UniProt P52333)
LRRK2 = LRRK2 (Homo sapiens, UniProt Q5S007)
MAP3K15 = MAP3K15 (Homo sapiens, UniProt Q6ZN16)
MELK = MELK (Homo sapiens, UniProt Q14680)
MERTK = MERTK (Homo sapiens, UniProt Q12866)
MKNK2 = MKNK2 (Homo sapiens, UniProt Q9HBH9)
PDXK = PDXK (Homo sapiens, UniProt O00764)
PHKG2 = PHKG2 (Homo sapiens, UniProt P15735)
PIM1 = PIM1 (Homo sapiens, UniProt P11309)
PLK4 = PLK4 (Homo sapiens, UniProt O00444)
PTK2B = PTK2B (Homo sapiens, UniProt Q14289)
RIPK4 = RIPK4 (Homo sapiens, UniProt P57078)
ROCK2 = ROCK2 (Homo sapiens, UniProt O75116)
RPS6KA2 = RPS6KA2 (Homo sapiens, UniProt Q15349)
STK17B = STK17B (Homo sapiens, UniProt O94768)
TEK = TEK (Homo sapiens, UniProt Q02763)
TESK1 = TESK1 (Homo sapiens, UniProt Q15569)
TYK2 = TYK2 (Homo sapiens, UniProt P29597)
YES1 = YES1 (Homo sapiens, UniProt P07947)

Measured: IC50

Chain of PHKG2 (P15735 whole entry): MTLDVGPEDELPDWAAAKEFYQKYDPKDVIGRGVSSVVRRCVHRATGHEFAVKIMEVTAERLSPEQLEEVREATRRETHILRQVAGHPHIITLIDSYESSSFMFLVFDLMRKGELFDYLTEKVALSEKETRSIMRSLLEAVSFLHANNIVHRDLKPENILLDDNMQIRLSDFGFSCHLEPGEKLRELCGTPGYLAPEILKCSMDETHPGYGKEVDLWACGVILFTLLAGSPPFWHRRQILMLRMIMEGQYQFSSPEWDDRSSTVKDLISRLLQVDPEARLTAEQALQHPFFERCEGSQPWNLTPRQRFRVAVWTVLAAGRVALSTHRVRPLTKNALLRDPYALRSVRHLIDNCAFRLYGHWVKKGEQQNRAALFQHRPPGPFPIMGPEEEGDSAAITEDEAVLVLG
Chain of ROCK2 (O75116 whole entry): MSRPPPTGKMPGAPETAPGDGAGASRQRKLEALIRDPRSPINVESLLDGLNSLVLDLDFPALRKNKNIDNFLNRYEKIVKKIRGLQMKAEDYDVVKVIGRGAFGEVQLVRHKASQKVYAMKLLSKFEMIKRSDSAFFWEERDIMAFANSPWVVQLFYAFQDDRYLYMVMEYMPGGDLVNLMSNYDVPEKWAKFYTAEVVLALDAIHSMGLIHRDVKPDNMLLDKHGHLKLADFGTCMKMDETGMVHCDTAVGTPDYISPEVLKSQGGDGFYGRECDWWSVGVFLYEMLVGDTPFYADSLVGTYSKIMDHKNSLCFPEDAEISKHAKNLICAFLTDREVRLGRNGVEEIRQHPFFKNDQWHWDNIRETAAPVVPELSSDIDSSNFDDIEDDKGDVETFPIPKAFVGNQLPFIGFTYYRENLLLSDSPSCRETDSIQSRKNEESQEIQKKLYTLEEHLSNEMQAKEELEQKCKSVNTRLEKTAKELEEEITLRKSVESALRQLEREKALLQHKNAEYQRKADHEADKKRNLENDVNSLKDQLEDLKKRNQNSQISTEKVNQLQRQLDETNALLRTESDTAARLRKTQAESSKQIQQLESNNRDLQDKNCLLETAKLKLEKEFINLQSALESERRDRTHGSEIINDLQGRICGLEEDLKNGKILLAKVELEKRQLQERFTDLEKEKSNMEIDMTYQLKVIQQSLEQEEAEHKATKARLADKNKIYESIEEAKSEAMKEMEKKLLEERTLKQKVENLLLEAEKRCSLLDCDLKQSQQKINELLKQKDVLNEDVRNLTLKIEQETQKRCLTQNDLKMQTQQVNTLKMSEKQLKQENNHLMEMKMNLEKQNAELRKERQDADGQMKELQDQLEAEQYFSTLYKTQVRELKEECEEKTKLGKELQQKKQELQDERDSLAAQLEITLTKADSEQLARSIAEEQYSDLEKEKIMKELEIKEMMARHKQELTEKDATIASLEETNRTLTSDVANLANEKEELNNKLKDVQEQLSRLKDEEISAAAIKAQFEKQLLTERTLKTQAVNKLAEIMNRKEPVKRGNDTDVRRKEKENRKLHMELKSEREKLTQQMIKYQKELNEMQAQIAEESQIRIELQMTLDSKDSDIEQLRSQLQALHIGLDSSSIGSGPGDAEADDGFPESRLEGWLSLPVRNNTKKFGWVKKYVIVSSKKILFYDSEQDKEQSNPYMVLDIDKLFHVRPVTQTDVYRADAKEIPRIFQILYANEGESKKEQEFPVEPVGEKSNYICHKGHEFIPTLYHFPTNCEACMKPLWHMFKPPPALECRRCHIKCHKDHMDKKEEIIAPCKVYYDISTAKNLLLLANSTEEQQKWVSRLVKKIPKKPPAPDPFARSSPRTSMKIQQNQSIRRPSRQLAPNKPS
Chain of YES1 (P07947 whole entry): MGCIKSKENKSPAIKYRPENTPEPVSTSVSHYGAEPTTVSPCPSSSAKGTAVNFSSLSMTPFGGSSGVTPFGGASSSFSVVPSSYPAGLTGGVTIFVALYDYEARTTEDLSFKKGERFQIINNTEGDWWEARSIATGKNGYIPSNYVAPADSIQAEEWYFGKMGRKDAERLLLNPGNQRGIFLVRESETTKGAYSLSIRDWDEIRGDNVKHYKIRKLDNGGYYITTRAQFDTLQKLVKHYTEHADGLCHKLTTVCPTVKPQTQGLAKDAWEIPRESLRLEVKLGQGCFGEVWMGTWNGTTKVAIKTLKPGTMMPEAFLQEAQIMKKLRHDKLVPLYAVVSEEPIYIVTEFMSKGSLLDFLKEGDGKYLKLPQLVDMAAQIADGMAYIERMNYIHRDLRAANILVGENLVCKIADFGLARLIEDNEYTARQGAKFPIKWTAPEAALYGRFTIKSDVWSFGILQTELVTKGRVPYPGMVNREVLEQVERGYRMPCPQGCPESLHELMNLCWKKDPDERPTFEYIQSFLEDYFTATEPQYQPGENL
Chain of TEK (Q02763 whole entry): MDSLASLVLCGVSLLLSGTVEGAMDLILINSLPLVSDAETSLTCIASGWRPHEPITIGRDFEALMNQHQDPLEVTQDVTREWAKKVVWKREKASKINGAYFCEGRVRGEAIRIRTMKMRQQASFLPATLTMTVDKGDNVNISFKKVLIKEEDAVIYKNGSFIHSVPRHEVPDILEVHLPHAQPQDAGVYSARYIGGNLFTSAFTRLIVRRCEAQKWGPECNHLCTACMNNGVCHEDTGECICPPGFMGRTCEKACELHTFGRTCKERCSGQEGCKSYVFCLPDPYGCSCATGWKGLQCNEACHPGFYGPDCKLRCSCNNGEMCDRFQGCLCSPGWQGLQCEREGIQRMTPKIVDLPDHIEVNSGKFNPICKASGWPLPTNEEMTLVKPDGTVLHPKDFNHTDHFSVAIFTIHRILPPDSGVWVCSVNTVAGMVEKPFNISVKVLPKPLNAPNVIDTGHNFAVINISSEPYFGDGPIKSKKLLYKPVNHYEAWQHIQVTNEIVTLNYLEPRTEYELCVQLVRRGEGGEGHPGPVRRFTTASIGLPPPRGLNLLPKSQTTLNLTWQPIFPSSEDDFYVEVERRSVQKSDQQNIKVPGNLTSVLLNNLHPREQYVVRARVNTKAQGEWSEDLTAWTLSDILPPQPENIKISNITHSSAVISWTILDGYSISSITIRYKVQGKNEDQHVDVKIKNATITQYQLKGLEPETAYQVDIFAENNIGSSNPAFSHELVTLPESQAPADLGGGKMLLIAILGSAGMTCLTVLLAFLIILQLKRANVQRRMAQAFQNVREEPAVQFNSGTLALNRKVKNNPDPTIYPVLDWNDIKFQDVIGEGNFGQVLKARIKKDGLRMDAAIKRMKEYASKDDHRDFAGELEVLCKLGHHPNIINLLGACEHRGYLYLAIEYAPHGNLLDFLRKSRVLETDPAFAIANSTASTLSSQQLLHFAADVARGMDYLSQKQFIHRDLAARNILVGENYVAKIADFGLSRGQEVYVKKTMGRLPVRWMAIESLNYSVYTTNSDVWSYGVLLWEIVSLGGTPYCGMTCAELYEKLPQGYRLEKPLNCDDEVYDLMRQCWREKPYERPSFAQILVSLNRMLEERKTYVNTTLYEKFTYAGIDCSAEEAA
Chain of PLK4 (O00444 whole entry): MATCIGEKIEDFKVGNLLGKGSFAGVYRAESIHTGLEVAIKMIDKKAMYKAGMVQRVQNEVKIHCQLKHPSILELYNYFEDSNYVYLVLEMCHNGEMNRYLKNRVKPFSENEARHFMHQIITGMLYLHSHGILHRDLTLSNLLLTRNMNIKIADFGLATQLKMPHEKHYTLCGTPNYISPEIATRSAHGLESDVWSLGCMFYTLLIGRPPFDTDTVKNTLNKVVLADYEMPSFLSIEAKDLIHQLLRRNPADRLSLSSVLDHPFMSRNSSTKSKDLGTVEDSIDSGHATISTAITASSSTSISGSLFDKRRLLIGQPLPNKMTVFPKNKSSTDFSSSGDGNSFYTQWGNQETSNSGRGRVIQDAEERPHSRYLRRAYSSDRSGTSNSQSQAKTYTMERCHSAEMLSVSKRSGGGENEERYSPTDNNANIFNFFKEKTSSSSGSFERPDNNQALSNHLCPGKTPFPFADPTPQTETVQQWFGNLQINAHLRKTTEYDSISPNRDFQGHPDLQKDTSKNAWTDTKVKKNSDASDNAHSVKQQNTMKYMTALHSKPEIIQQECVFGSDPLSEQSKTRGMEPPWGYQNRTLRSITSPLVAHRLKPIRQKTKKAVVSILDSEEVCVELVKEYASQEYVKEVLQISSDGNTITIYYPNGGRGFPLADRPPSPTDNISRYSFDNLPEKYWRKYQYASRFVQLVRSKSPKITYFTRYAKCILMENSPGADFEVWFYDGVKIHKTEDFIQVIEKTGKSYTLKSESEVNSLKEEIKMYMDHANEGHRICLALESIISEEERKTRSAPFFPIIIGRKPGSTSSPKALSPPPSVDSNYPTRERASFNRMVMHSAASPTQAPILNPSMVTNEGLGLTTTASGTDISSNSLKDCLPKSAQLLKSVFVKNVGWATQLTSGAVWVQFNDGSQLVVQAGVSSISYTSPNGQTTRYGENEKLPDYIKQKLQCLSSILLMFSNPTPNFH
Chain of PDXK (O00764 whole entry): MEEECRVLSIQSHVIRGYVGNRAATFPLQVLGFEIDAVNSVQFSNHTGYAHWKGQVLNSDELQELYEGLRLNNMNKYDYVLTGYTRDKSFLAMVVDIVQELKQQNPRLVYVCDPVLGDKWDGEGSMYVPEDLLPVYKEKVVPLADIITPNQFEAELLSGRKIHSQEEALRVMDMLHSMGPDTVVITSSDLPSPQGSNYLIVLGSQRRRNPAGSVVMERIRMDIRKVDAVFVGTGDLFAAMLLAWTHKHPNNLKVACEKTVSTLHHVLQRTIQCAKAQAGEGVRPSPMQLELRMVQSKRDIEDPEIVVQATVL
Chain of PIM1 (P11309 whole entry): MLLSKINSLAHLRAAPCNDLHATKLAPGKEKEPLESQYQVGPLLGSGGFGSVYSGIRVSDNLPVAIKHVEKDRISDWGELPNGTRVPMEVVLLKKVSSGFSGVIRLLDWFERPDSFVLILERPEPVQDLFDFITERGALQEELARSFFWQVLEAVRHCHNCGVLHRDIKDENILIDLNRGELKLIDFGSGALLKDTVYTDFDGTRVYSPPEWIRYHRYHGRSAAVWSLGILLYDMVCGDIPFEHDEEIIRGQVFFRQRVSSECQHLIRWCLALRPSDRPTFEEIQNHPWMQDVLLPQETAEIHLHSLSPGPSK

COc1nc(N[C@H]2CC[C@H](NS(=O)(=O)CC(C)C)CC2)nc2[nH]nc(N3CCOC[C@H]3C)c12 [compound 39, N-(trans-4-((4-Methoxy-3-((R)-3-methylmorpholino)-1H-pyrazolo[3,4-d]pyrimidin-6-yl)amino)cyclohexyl)-2-methylpropane-1-sulfonamide]
≥ 20 µM: all assays above

— PMC6407917, “Identification of GSK3186899/DDD853651 as a Preclinical Development Candidate for the Treatment of Visceral Leishmaniasis” (Journal of Medicinal Chemistry, 2018)
